Values quoted from earlier work in patent US8697713B2, “Pyrrolopyrimidines for pharmaceutical compositions” (Boehringer Ingelheim International GmbH, priority 2006, dated 2014).

Columns and labels:
[1] = target: human Mnk2 protein (Homo sapiens, UniProt Q9HBH9)
[2] = test system: phosphorylated eIF4E; conditions: cell culture cells transfected with Mnk2 (Mnk2a or Mnk2b) or Mnk1

human Mnk2 protein, sequence (Q9HBH9 whole entry): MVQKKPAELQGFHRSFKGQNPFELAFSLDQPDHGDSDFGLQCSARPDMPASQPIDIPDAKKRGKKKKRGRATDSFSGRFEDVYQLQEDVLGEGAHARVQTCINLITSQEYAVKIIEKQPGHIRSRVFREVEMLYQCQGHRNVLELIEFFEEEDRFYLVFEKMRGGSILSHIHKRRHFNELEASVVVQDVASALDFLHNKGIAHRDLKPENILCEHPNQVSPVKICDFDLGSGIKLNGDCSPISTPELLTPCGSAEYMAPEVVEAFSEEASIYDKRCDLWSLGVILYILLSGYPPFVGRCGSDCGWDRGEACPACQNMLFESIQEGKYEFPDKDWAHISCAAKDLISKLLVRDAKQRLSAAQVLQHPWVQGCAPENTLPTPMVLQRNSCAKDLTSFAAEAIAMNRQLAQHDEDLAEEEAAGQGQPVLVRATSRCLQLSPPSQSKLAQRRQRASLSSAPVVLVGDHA

binds the human Mnk2 protein [1]	Compound	reduction of phosphorylated eIF4E [2]
binds	COC(=O)c1ccc(O)cc1 [4-hydroxybenzoic acid methyl ester]	
	Nc1ncnc2n[nH]c(Nc3ccc(F)cc3)c12 [CGP57380]	strong reduction
